Test results reported in patent US20090181898A1, “ABUSE-RESISTANT A[…]” (SHIRE LLC, priority 2002, published 2009).
“And” between values parts separate entries of the source, which are not always exact repeats. Identical values can stand only once.

Key:
[1] = Clinical pharmacokinetics, 25 and 75 mg, compared to Adderall XR and Dexedrine Spansule; details: for concentration at 10 h / concentration at 12 h / concentration at 16 h / concentration at 24 h / concentration at 48 h / concentration at 72 h / L-lysine-d-amphetamine intact conjugate concentration / L-lysine-d-amphetamine intact conjugate AUCinf / L-lysine-d-amphetamine intact conjugate AUClast / L-lysine-d-amphetamine intact conjugate Cmax / L-lysine-d-amphetamine intact conjugate Tmax: human; for concentration at 10 h / concentration at 12 h / concentration at 16 h / concentration at 24 h / concentration at 48 h / concentration at 72 h: in vivo, po, L-lysine-d-amphetamine intact conjugate concentration
[2] = target: T1, human recombinant norepinephrine transport binding sites (NET) (Homo sapiens, UniProt P23975); assay: Radioligand binding assay, norepinephrine transporter (NovaScreen)
T1 construct: NovaScreen, Hanover, Md; (contract laboratory that ran the assay)
T1 sequence (P23975 whole entry): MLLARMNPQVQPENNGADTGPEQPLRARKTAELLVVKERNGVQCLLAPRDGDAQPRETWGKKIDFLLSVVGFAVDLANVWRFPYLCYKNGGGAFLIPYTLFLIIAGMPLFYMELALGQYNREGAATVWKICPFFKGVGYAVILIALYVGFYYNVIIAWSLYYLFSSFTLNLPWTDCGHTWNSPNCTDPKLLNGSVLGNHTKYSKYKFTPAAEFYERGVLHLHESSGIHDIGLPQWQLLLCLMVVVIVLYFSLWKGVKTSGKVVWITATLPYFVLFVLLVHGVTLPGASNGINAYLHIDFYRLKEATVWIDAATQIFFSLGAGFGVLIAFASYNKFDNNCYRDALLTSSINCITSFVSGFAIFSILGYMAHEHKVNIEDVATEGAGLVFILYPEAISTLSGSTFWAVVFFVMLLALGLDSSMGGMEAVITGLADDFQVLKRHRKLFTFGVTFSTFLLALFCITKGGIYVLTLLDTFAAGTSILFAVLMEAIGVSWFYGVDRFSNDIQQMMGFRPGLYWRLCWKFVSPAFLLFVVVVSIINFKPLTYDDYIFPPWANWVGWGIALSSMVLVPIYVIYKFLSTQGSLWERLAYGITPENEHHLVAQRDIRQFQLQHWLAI

[3] = Serum and brain tissue levels following oral administration (LC/MS/MS); details: rat, 5 mg/kg d-amphetamine base
[4] = Kitchen tests: water, acid (vinegar), base (baking powder, baking soda), boiling; type: physicochemical; details: for free amphetamine released: heated to boiling for 20-60 minutes
Method: “Kitchen tests” were performed in anticipation of attempts by illicit chemists to release free amphetamine from the amphetamine conjugate.

[5] = Clinical steady-state pharmacokinetics, 70 mg capsules once daily for 7 days, healthy adults, fasting
Method: Patients fasted for at least 10 hours before and 4 hours after final dosing. Venous blood samples (7 mL) were drawn into EDTA vacutainers both before medication dosing on days 0, 1, 6, and 7 (in the morning) and at 16 time points (hours 0.5, 1, 1.5, 2, 3, 4, 5, 6, 7, 8, 10, 12, 16, 24, 48, and 72) after final dosing on day 7. Immediately after sample collection, vacutainer tubes were centrifuged at 3000 rpm at 4° C. for 10 minutes; within 1 hour of collection, they were stored at −20° C.

[6] = 75 mg, oral 75 mg L-lysine-d-amphetamine, individual subjects
[7] = 75 mg, oral 75 mg L-lysine-d-amphetamine, mean
[8] = oral 25 mg L-lysine-d-amphetamine, individual subjects
[9] = oral 75 mg L-lysine-d-amphetamine, individual subjects
[10] = steady state, 70 mg once daily for 7 days, healthy adults, fasting, mean n = 11

For `CC(Cc1ccccc1)NC(=O)C(N)CCCCN` [L-lysine-d-amphetamine, 2,6-diaminohexanoic acid-(1-methyl-2-phenylethyl)-amide], the concentration at 10 h ([1]; 75 mg, oral 75 mg L-lysine-d-amphetamine, 10 h, individual subjects) was 0 ng/mL, the concentration at 10 h ([1]; 75 mg, oral 75 mg L-lysine-d-amphetamine, 10 h, mean) was 0 ng/mL and the concentration at 12 h ([1]; 75 mg, oral 75 mg L-lysine-d-amphetamine, 12 h, individual subjects) was 0 ng/mL. For the same compound, the concentration at 12 h ([1]; 75 mg, oral 75 mg L-lysine-d-amphetamine, 12 h, mean) was 0 ng/mL, the concentration at 16 h [1, 6] was 0 ng/mL and the concentration at 16 h [1, 7] was 0 ng/mL. The concentration at 24 h [1, 6] was 0 ng/mL, the concentration at 24 h [1, 7] was 0 ng/mL and the concentration at 48 h [1, 6] was 0 ng/mL. It also gave a concentration at 48 h [1, 7] of 0 ng/mL, a concentration at 72 h [1, 6] of 0 ng/mL and a concentration at 72 h [1, 7] of 0 ng/mL. For the same compound, the “L-lysine-d-amphetamine intact conjugate concentration” value ([1]; oral 25 mg L-lysine-d-amphetamine, 1 h, individual subjects) was 9.2 ng/mL and 10.9 ng/mL and 11.2 ng/mL and 15.2 ng/mL and 12.5 ng/mL and 9.1 ng/mL and 2.7 ng/mL and 20.1 ng/mL and 10.5 ng/mL and 10.8 ng/mL, the “L-lysine-d-amphetamine intact conjugate concentration” value ([1]; oral 25 mg L-lysine-d-amphetamine, 2 h, individual subjects) was 2.1 ng/mL and 3.1 ng/mL and 1.4 ng/mL and 2.5 ng/mL and 2.9 ng/mL and 1.9 ng/mL and 4.0 ng/mL and 2.3 ng/mL and 0 ng/mL and 1.7 ng/mL and the “L-lysine-d-amphetamine intact conjugate concentration” value ([1]; oral 25 mg L-lysine-d-amphetamine, 3 h, individual subjects) was 0 ng/mL. The “L-lysine-d-amphetamine intact conjugate concentration” value ([1]; oral 25 mg L-lysine-d-amphetamine, 4 h, individual subjects) was 0 ng/mL, the “L-lysine-d-amphetamine intact conjugate concentration” value ([1]; oral 25 mg L-lysine-d-amphetamine, 5 h, individual subjects) was 0 ng/mL and the “L-lysine-d-amphetamine intact conjugate concentration” value ([1]; oral 25 mg L-lysine-d-amphetamine, 6 h, individual subjects) was 0 ng/mL. The “L-lysine-d-amphetamine intact conjugate concentration” value ([1]; oral 25 mg L-lysine-d-amphetamine, 7 h, individual subjects) was 0 ng/mL, the “L-lysine-d-amphetamine intact conjugate concentration” value ([1]; oral 25 mg L-lysine-d-amphetamine, 8 h, individual subjects) was 0 ng/mL and the “L-lysine-d-amphetamine intact conjugate concentration” value ([1]; oral 25 mg L-lysine-d-amphetamine, 10 h, individual subjects) was 0 ng/mL. The “L-lysine-d-amphetamine intact conjugate concentration” value ([1]; oral 25 mg L-lysine-d-amphetamine, 12 h, individual subjects) was 0 ng/mL, the “L-lysine-d-amphetamine intact conjugate AUCinf” value [1, 8] was 10.62 ng·h/mL and 12.83 ng·h/mL and 11.64 ng·h/mL and 17.66 ng·h/mL and 12.65 ng·h/mL and 9.759 ng·h/mL and 19.56 ng·h/mL and 13.3 ng·h/mL and the “L-lysine-d-amphetamine intact conjugate AUClast” value [1, 8] was 9.18 ng·h/mL and 10.41 ng·h/mL and 10.95 ng·h/mL and 16.31 ng·h/mL and 10.68 ng·h/mL and 8.583 ng·h/mL and 5.439 ng·h/mL and 18.51 ng·h/mL and 10.77 ng·h/mL and 12.35 ng·h/mL. For the same compound, the “L-lysine-d-amphetamine intact conjugate Cmax” value [1, 8] was 9.18 ng/mL and 10.9 ng/mL and 11.2 ng/mL and 15.2 ng/mL and 12.5 ng/mL and 9.05 ng/mL and 6.18 ng/mL and 20.1 ng/mL and 10.5 ng/mL and 10.8 ng/mL, the “L-lysine-d-amphetamine intact conjugate Tmax” value [1, 8] was 1.5 h and the “L-lysine-d-amphetamine intact conjugate AUCinf” value [1, 9] was 52.5 ng·h/mL and 87.0 ng·h/mL and 45.0 ng·h/mL and 33.0 ng·h/mL and 44.9 ng·h/mL and 52.3 ng·h/mL and 34.2 ng·h/mL and 31.4 ng·h/mL and 102.9 ng·h/mL and 111.7 ng·h/mL. For the same compound, the “L-lysine-d-amphetamine intact conjugate AUClast” value [1, 9] was 51.2 ng·h/mL and 86.1 ng·h/mL and 44.2 ng·h/mL and 32.0 ng·h/mL and 43.7 ng·h/mL and 50.4 ng·h/mL and 30.9 ng·h/mL and 29.8 ng·h/mL and 102.1 ng·h/mL and 110.8 ng·h/mL, the “L-lysine-d-amphetamine intact conjugate Cmax” value [1, 9] was 48.0 ng/mL and 80.1 ng/mL and 40.5 ng/mL and 29.0 ng/mL and 41.5 ng/mL and 26.5 ng/mL and 30.8 ng/mL and 23.4 ng/mL and 127.0 ng/mL and 88.9 ng/mL and the “L-lysine-d-amphetamine intact conjugate Tmax” value [1, 9] was 1.5 h. The “Intact conjugate as percent of total drug absorption (AUCinf-molar basis)” value ([1]; humans, oral, 25 mg) was 1.6%, the “Bioavailability over twelve hours vs Adderall XR® (d-amphetamine plus l-amphetamine levels)” value ([1]; humans, oral, 75 mg) was “approximately equivalent” and the “Bioavailability over twelve hours vs Dexedrine Spansule®” value ([1]; humans, oral, 75 mg) was “over twenty percent higher”. For the same compound, the “Intact conjugate as percent of total drug absorption (AUCinf-molar basis)” value ([1]; humans, oral, 75 mg) was 2.0%, the “Bioavailability (AUCinf) of d-amphetamine vs both extended release amphetamine products” value ([1]; humans, oral, 75 mg vs Adderall XR® 35 mg and Dexedrine Spansule® 30 mg) was “approximately equivalent” and the “Time of peak levels of intact conjugate” value ([1]; humans, oral, 25 and 75 mg) was “about one hour”. The “Elimination of intact conjugate” value ([1]; humans, oral, even at the highest dose) was “no detectable concentrations present by five hours”, the inhibition at 10 µM ([2]; 10^−5 mol/L) was 13.9% and the inhibition at 0.1 µM ([2]; 10^−7 mol/L) was -11.8%. For the same compound, the inhibition at 0.001 µM ([2]; 10^−9 mol/L) was 8.15%, the “Specific binding to norepinephrine transport binding sites” value ([2]; 10^−9 to 10^−5 M) was “did not bind” and the Activity ([2]; NE Transporter, radioligand [3H]-Nisoxetine, 10^−9 to 10^−5 M) was “No (No activity is defined as producing between −20% and 20% inhibition of radioligand binding (Novascreen).)”. For the same compound, the “Intact conjugate in brain tissue” value [3] was “not detected”, the “Intact conjugate in serum” value [3] was “present in appreciable amounts” and the free amphetamine released ([4]; Baking Powder) was 0%. It also gave a free amphetamine released ([4]; Baking Soda) of 0%, a free amphetamine released ([4]; Tap Water) of 0% and a free amphetamine released ([4]; Vinegar) of 0%. The “Release of free amphetamine in kitchen tests” value ([4]; water, vinegar, baking powder, baking soda, boiling 20-60 minutes) was “no detectable free amphetamine”, the “Time within which L-lysine-d-amphetamine was completely eliminated” value ([5]; healthy adults, 70 mg) was at most 6 h and the Tolerability ([5]; healthy adults, 70 mg, 7 days) was “well tolerated”. For the same compound, the AUC(0-inf) ([5]; human, in vivo, 70 mg) was 61.1 ng·h/mL, the Cmax ([5]; human, in vivo, 70 mg) was 47.9 ng/mL and the Tmax ([5]; human, in vivo, 70 mg) was 1.14 h. For the same compound, the half-life ([5]; human, in vivo, 70 mg) was 0.43 h, the AUC(0-t) ([5]; human, in vivo, 70 mg, AUC0-24 of intact L-lysine-d-amphetamine, steady state, 70 mg once daily for 7 days, healthy adults, fasting, mean n = 11) was 60.7 ng·h/mL and the AUC(0-t) ([5]; human, in vivo, 70 mg, AUC0-t of intact L-lysine-d-amphetamine, steady state, 70 mg once daily for 7 days, healthy adults, fasting, mean n = 11) was 59.4 ng·h/mL. For the same compound, the AUC(0-t) ([5]; human, in vivo, 70 mg, Mean AUC0-24 of intact L-lysine-d-amphetamine, healthy adults, 70 mg once daily, after dose 7) was 60.7 ng·h/mL, the “AUC0-∞ of intact L-lysine-d-amphetamine” value [5, 10] was 61.06 ng·h/mL and the “Cmin of intact L-lysine-d-amphetamine” value [5, 10] was 0.0 ng/mL. The “FI of intact L-lysine-d-amphetamine” value [5, 10] was 1896.06%.
